The data set concerns the target SOST. Briefly: reporter assay of Huesken 2005. Conditions: siRNA. (In general: Reporter assays use an easily measured gene product as a stand-in for the process of interest.)

Oligonucleotides are given in HELM: sugar(base)linkage, 5' to 3'; d 2'-deoxyribose, r ribose, m 2'-O-methylribose, p phosphate. ss, as = sense and antisense strand
Note: test concentration or dose not given here.

Substance “RNA1{r(G)p.r(C)p.r(C)p.r(C)p.r(A)p.r(A)p.r(C)p.r(G)p.r(C)p.r(C)p.r(A)p.r(U)p.r(C)p.r(G)p.r(G)p.r(C)p.r(C)p.r(G)p.r(C)p.d(T)p.d(T)}|RNA2{r(G)p.r(C)p.r(G)p.r(G)p.r(C)p.r(C)p.r(G)p.r(A)p.r(U)p.r(G)p.r(G)p.r(C)p.r(G)p.r(U)p.r(U)p.r(G)p.r(G)p.r(G)p.r(C)p.d(A)p.d(G)}$$$RNA1{StrandType:ss}|RNA2{StrandType:as}$” registered a normalised inhibition (eCFP-eYFP dual reporter) of 64.3%. “RNA1{r(C)p.r(C)p.r(A)p.r(C)p.r(A)p.r(A)p.r(C)p.r(C)p.r(A)p.r(G)p.r(U)p.r(C)p.r(G)p.r(G)p.r(A)p.r(G)p.r(C)p.r(U)p.r(C)p.d(T)p.d(T)}|RNA2{r(G)p.r(A)p.r(G)p.r(C)p.r(U)p.r(C)p.r(C)p.r(G)p.r(A)p.r(C)p.r(U)p.r(G)p.r(G)p.r(U)p.r(U)p.r(G)p.r(U)p.r(G)p.r(G)p.d(A)p.d(A)}$$$RNA1{StrandType:ss}|RNA2{StrandType:as}$” registered a normalised inhibition (eCFP-eYFP dual reporter) of 80.8%. Regarding “RNA1{r(C)p.r(C)p.r(G)p.r(G)p.r(U)p.r(G)p.r(G)p.r(U)p.r(G)p.r(A)p.r(G)p.r(G)p.r(C)p.r(G)p.r(C)p.r(C)p.r(G)p.r(C)p.r(G)p.d(T)p.d(T)}|RNA2{r(C)p.r(G)p.r(C)p.r(G)p.r(G)p.r(C)p.r(G)p.r(C)p.r(C)p.r(U)p.r(C)p.r(A)p.r(C)p.r(C)p.r(A)p.r(C)p.r(C)p.r(G)p.r(G)p.d(G)p.d(A)}$$$RNA1{StrandType:ss}|RNA2{StrandType:as}$”, the normalised inhibition (eCFP-eYFP dual reporter) was found to be 35.8%. The result for “RNA1{r(U)p.r(C)p.r(G)p.r(G)p.r(C)p.r(C)p.r(G)p.r(C)p.r(G)p.r(G)p.r(C)p.r(A)p.r(A)p.r(G)p.r(U)p.r(G)p.r(G)p.r(U)p.r(G)p.d(T)p.d(T)}|RNA2{r(C)p.r(A)p.r(C)p.r(C)p.r(A)p.r(C)p.r(U)p.r(U)p.r(G)p.r(C)p.r(C)p.r(G)p.r(C)p.r(G)p.r(G)p.r(C)p.r(C)p.r(G)p.r(A)p.d(T)p.d(G)}$$$RNA1{StrandType:ss}|RNA2{StrandType:as}$” reads 66%; that for “RNA1{r(C)p.r(C)p.r(G)p.r(C)p.r(U)p.r(A)p.r(C)p.r(G)p.r(U)p.r(G)p.r(A)p.r(C)p.r(C)p.r(G)p.r(A)p.r(U)p.r(G)p.r(G)p.r(G)p.d(T)p.d(T)}|RNA2{r(C)p.r(C)p.r(C)p.r(A)p.r(U)p.r(C)p.r(G)p.r(G)p.r(U)p.r(C)p.r(A)p.r(C)p.r(G)p.r(U)p.r(A)p.r(G)p.r(C)p.r(G)p.r(G)p.d(G)p.d(T)}$$$RNA1{StrandType:ss}|RNA2{StrandType:as}$”, 64.7%; that for “RNA1{r(G)p.r(U)p.r(G)p.r(U)p.r(C)p.r(C)p.r(C)p.r(G)p.r(G)p.r(U)p.r(G)p.r(G)p.r(U)p.r(G)p.r(A)p.r(G)p.r(G)p.r(C)p.r(G)p.d(T)p.d(T)}|RNA2{r(C)p.r(G)p.r(C)p.r(C)p.r(U)p.r(C)p.r(A)p.r(C)p.r(C)p.r(A)p.r(C)p.r(C)p.r(G)p.r(G)p.r(G)p.r(A)p.r(C)p.r(A)p.r(C)p.d(A)p.d(G)}$$$RNA1{StrandType:ss}|RNA2{StrandType:as}$”, 62.9%. The result for “RNA1{r(G)p.r(G)p.r(U)p.r(G)p.r(A)p.r(G)p.r(G)p.r(C)p.r(G)p.r(C)p.r(C)p.r(G)p.r(C)p.r(G)p.r(C)p.r(G)p.r(C)p.r(G)p.r(C)p.d(T)p.d(T)}|RNA2{r(G)p.r(C)p.r(G)p.r(C)p.r(G)p.r(C)p.r(G)p.r(C)p.r(G)p.r(G)p.r(C)p.r(G)p.r(C)p.r(C)p.r(U)p.r(C)p.r(A)p.r(C)p.r(C)p.d(A)p.d(C)}$$$RNA1{StrandType:ss}|RNA2{StrandType:as}$” reads 26%; that for “RNA1{r(U)p.r(C)p.r(A)p.r(A)p.r(G)p.r(A)p.r(A)p.r(U)p.r(G)p.r(A)p.r(U)p.r(G)p.r(C)p.r(C)p.r(A)p.r(C)p.r(G)p.r(G)p.r(A)p.d(T)p.d(T)}|RNA2{r(U)p.r(C)p.r(C)p.r(G)p.r(U)p.r(G)p.r(G)p.r(C)p.r(A)p.r(U)p.r(C)p.r(A)p.r(U)p.r(U)p.r(C)p.r(U)p.r(U)p.r(G)p.r(A)p.d(A)p.d(C)}$$$RNA1{StrandType:ss}|RNA2{StrandType:as}$”, 68.7%; that for “RNA1{r(G)p.r(C)p.r(C)p.r(A)p.r(G)p.r(G)p.r(G)p.r(G)p.r(U)p.r(G)p.r(G)p.r(C)p.r(A)p.r(G)p.r(G)p.r(C)p.r(G)p.r(U)p.r(U)p.d(T)p.d(T)}|RNA2{r(A)p.r(A)p.r(C)p.r(G)p.r(C)p.r(C)p.r(U)p.r(G)p.r(C)p.r(C)p.r(A)p.r(C)p.r(C)p.r(C)p.r(C)p.r(U)p.r(G)p.r(G)p.r(C)p.d(C)p.d(C)}$$$RNA1{StrandType:ss}|RNA2{StrandType:as}$”, 77.7%. The result for “RNA1{r(G)p.r(C)p.r(U)p.r(C)p.r(C)p.r(G)p.r(G)p.r(C)p.r(C)p.r(A)p.r(G)p.r(U)p.r(G)p.r(C)p.r(G)p.r(G)p.r(C)p.r(C)p.r(C)p.d(T)p.d(T)}|RNA2{r(G)p.r(G)p.r(G)p.r(C)p.r(C)p.r(G)p.r(C)p.r(A)p.r(C)p.r(U)p.r(G)p.r(G)p.r(C)p.r(C)p.r(G)p.r(G)p.r(A)p.r(G)p.r(C)p.d(A)p.d(C)}$$$RNA1{StrandType:ss}|RNA2{StrandType:as}$” reads 53%; that for “RNA1{r(G)p.r(C)p.r(G)p.r(U)p.r(U)p.r(C)p.r(A)p.r(A)p.r(G)p.r(A)p.r(A)p.r(U)p.r(G)p.r(A)p.r(U)p.r(G)p.r(C)p.r(C)p.r(A)p.d(T)p.d(T)}|RNA2{r(U)p.r(G)p.r(G)p.r(C)p.r(A)p.r(U)p.r(C)p.r(A)p.r(U)p.r(U)p.r(C)p.r(U)p.r(U)p.r(G)p.r(A)p.r(A)p.r(C)p.r(G)p.r(C)p.d(C)p.d(T)}$$$RNA1{StrandType:ss}|RNA2{StrandType:as}$”, 93.4%; that for “RNA1{r(A)p.r(A)p.r(A)p.r(U)p.r(C)p.r(A)p.r(U)p.r(C)p.r(C)p.r(C)p.r(C)p.r(G)p.r(A)p.r(G)p.r(C)p.r(U)p.r(C)p.r(G)p.r(G)p.d(T)p.d(T)}|RNA2{r(C)p.r(C)p.r(G)p.r(A)p.r(G)p.r(C)p.r(U)p.r(C)p.r(G)p.r(G)p.r(G)p.r(G)p.r(A)p.r(U)p.r(G)p.r(A)p.r(U)p.r(U)p.r(U)p.d(C)p.d(C)}$$$RNA1{StrandType:ss}|RNA2{StrandType:as}$”, 49.8%.

Regarding “RNA1{r(A)p.r(A)p.r(G)p.r(G)p.r(A)p.r(C)p.r(U)p.r(U)p.r(C)p.r(G)p.r(G)p.r(G)p.r(A)p.r(C)p.r(C)p.r(G)p.r(A)p.r(G)p.r(G)p.d(T)p.d(T)}|RNA2{r(C)p.r(C)p.r(U)p.r(C)p.r(G)p.r(G)p.r(U)p.r(C)p.r(C)p.r(C)p.r(G)p.r(A)p.r(A)p.r(G)p.r(U)p.r(C)p.r(C)p.r(U)p.r(U)p.d(G)p.d(A)}$$$RNA1{StrandType:ss}|RNA2{StrandType:as}$”, the normalised inhibition (eCFP-eYFP dual reporter) was found to be 58.7%. The result for “RNA1{r(C)p.r(G)p.r(U)p.r(G)p.r(U)p.r(A)p.r(G)p.r(U)p.r(G)p.r(G)p.r(A)p.r(G)p.r(G)p.r(G)p.r(C)p.r(C)p.r(A)p.r(G)p.r(G)p.d(T)p.d(T)}|RNA2{r(C)p.r(C)p.r(U)p.r(G)p.r(G)p.r(C)p.r(C)p.r(C)p.r(U)p.r(C)p.r(C)p.r(A)p.r(C)p.r(U)p.r(A)p.r(C)p.r(A)p.r(C)p.r(G)p.d(G)p.d(A)}$$$RNA1{StrandType:ss}|RNA2{StrandType:as}$” reads 60.7%; that for “RNA1{r(A)p.r(G)p.r(C)p.r(U)p.r(C)p.r(A)p.r(A)p.r(G)p.r(G)p.r(A)p.r(C)p.r(U)p.r(U)p.r(C)p.r(G)p.r(G)p.r(G)p.r(A)p.r(C)p.d(T)p.d(T)}|RNA2{r(G)p.r(U)p.r(C)p.r(C)p.r(C)p.r(G)p.r(A)p.r(A)p.r(G)p.r(U)p.r(C)p.r(C)p.r(U)p.r(U)p.r(G)p.r(A)p.r(G)p.r(C)p.r(U)p.d(C)p.d(C)}$$$RNA1{StrandType:ss}|RNA2{StrandType:as}$”, 64.7%. The result for “RNA1{r(C)p.r(A)p.r(G)p.r(G)p.r(C)p.r(G)p.r(U)p.r(U)p.r(C)p.r(A)p.r(A)p.r(G)p.r(A)p.r(A)p.r(U)p.r(G)p.r(A)p.r(U)p.r(G)p.d(T)p.d(T)}|RNA2{r(C)p.r(A)p.r(U)p.r(C)p.r(A)p.r(U)p.r(U)p.r(C)p.r(U)p.r(U)p.r(G)p.r(A)p.r(A)p.r(C)p.r(G)p.r(C)p.r(C)p.r(U)p.r(G)p.d(C)p.d(C)}$$$RNA1{StrandType:ss}|RNA2{StrandType:as}$” reads 82.4%; that for “RNA1{r(C)p.r(C)p.r(G)p.r(A)p.r(U)p.r(G)p.r(G)p.r(G)p.r(C)p.r(C)p.r(G)p.r(U)p.r(G)p.r(C)p.r(C)p.r(G)p.r(C)p.r(A)p.r(G)p.d(T)p.d(T)}|RNA2{r(C)p.r(U)p.r(G)p.r(C)p.r(G)p.r(G)p.r(C)p.r(A)p.r(C)p.r(G)p.r(G)p.r(C)p.r(C)p.r(C)p.r(A)p.r(U)p.r(C)p.r(G)p.r(G)p.d(T)p.d(C)}$$$RNA1{StrandType:ss}|RNA2{StrandType:as}$”, 54.3%; that for “RNA1{r(C)p.r(A)p.r(U)p.r(C)p.r(C)p.r(C)p.r(C)p.r(G)p.r(A)p.r(G)p.r(C)p.r(U)p.r(C)p.r(G)p.r(G)p.r(A)p.r(G)p.r(A)p.r(G)p.d(T)p.d(T)}|RNA2{r(C)p.r(U)p.r(C)p.r(U)p.r(C)p.r(C)p.r(G)p.r(A)p.r(G)p.r(C)p.r(U)p.r(C)p.r(G)p.r(G)p.r(G)p.r(G)p.r(A)p.r(U)p.r(G)p.d(A)p.d(T)}$$$RNA1{StrandType:ss}|RNA2{StrandType:as}$”, 50.9%. Substance “RNA1{r(G)p.r(G)p.r(G)p.r(C)p.r(G)p.r(G)p.r(C)p.r(C)p.r(U)p.r(C)p.r(C)p.r(C)p.r(C)p.r(A)p.r(C)p.r(C)p.r(A)p.r(C)p.r(C)p.d(T)p.d(T)}|RNA2{r(G)p.r(G)p.r(U)p.r(G)p.r(G)p.r(U)p.r(G)p.r(G)p.r(G)p.r(G)p.r(A)p.r(G)p.r(G)p.r(C)p.r(C)p.r(G)p.r(C)p.r(C)p.r(C)p.d(T)p.d(C)}$$$RNA1{StrandType:ss}|RNA2{StrandType:as}$” registered a normalised inhibition (eCFP-eYFP dual reporter) of 64.3%. Consider “RNA1{r(G)p.r(U)p.r(G)p.r(C)p.r(C)p.r(G)p.r(C)p.r(A)p.r(G)p.r(C)p.r(G)p.r(C)p.r(C)p.r(A)p.r(A)p.r(G)p.r(C)p.r(C)p.r(G)p.d(T)p.d(T)}|RNA2{r(C)p.r(G)p.r(G)p.r(C)p.r(U)p.r(U)p.r(G)p.r(G)p.r(C)p.r(G)p.r(C)p.r(U)p.r(G)p.r(C)p.r(G)p.r(G)p.r(C)p.r(A)p.r(C)p.d(G)p.d(G)}$$$RNA1{StrandType:ss}|RNA2{StrandType:as}$”, for which the normalised inhibition (eCFP-eYFP dual reporter) amounted to 49.6%.

The values are drawn from the OligoGym collection.
